The subject of experiment [1] is splenocytes (SPL) and lymph node cells (LNC). Description: Ex vivo tolerance assay: apitope pre-treatment, priming with long peptide, then recall proliferation and cytokine production. Format: in vivo, HLA-DRB1*1501 mice.
The test system of experiment [2] is HLA-DRB1*1501 transgenic mice. Description: EAE induction by priming with long peptide. Format: in vivo. Particulars: long peptides, HLA-DRB1*1501 mice, FIG. 1. On the procedure:
For each peptide, in silico studies were carried out to predict DR2 (HLA-DRB1*1501) binding capacity, and in vitro (proliferation assay) and in vivo (EAE induction) studies were carried out to investigate response.
HLA-DRB1*1501 transgenic mice were injected with 100 μl containing 100 μg of long peptide in PBS (Lonza, Verviers, Belgium) or PBS alone, and with Complete Freund Adjuvant (CFA; BD Difco, Oxford, UK) with 4 mg/ml Mycobacterium tuberculosis (MTb, BD Difco, Oxford, UK) subcutaneously at the base of the tail. For EAE study, the mice were injected with 200 ng of pertussis toxin at the same time as the priming and 2 days after. The mice were then followed, weight and scored for disease every day.

The subject of experiment [3] is splenocytes and lymph node cells. Briefly: In vitro proliferation assay for immunogenicity of the long peptides. The settings on record: HLA-DRB1*1501 mice, FIG. 1. Format: cell-based, HLA-DRB1*1501 transgenic mice.
Experiment [4] concerns the target T1, HLA-DRB1*1501 (Homo sapiens, UniProt P01903+P01911).
T1 construct: human cell line expressing HLA-DRB1*1501; host or cells: MGAR cells (human cell line), fixed with paraformaldehyde or fresh
Briefly: Antigen processing independent presentation system: fixed MGAR cells plus peptide-specific T cell hybridomas, IL-2 ELISA. Format: cell-based. On the procedure: 100 μl of hybridoma cells were cultured with 5×10^4 MGAR cells (human cell line expressing HLA-DRB1*1501, Health Protection Agency Culture Collections, Salisbury, UK) in wells of a flat bottom 96-well plate. 50 μl complete RPMI-10% FCS containing a long peptide at 10 μg/ml or the same volume of DMSO (diluent of the peptide) was added to the wells. After 48 h, 120 μl of supernatant was removed and a mouse IL-2 ELISA (Enzyme-linked immunosorbent assay) performed. Clones that produce IL-2 recognise the antigen used. The remaining supernatants were frozen at −20° C.
96 well plates (Immunosorb 96 well, Nunc, Roskilde, Denmark) were coated with 50 μl/well purified rat anti-mouse IL-2 capture Ab (BD Biosciences, Oxford, UK), diluted 1:250 in carbonate buffer (3.56 g Na2CO3 (Sigma-Aldrich, Saint Louis, Mass.), 8.4 g NaHCO3 (Fisher Scientific, Loughborough, UK), 1 L elgastat water; pH 9.5) and incubated overnight at 4° C. After 2 washes in PBS-Tween (1 L 10× PBS, 9 L distilled water, 0.5 ml Tween (Sigma-Aldrich, Saint Louis, Mass.)), […] of PBS-10% FCS were added and incubated at RT for 1 hour. After 3 washes in PBS-Tween, 50 μl of supernatant or IL-2 standard (BD Biosciences, Oxford, UK) dilutions (in PBS-10% FCS) were added to the wells and incubated 2 h at RT. After 4 washes in PBS-Tween (Sigma-Aldrich, Saint Louis, Mass.), 50 μl/well of biotin rat anti-mouse IL2 (BD Biosciences, Oxford, UK) diluted 1:1000 in 10% FCS/PBS was added and incubated for 1 h at RT. After 4 washes, 50 μl/well extravidin peroxidase (Sigma-Aldrich, Saint Louis, Mass.) diluted 1:1000 in PBS was added and incubated 30 min at RT. After 4 washes, […] of substrate solution* was added and incubated at RT until a clear colour change was seen. The reaction was stopped using 50 μl/well 2M H2SO4 (BDH, Poole, UK) and plates were read at 450 nm (550 nm ref) with an ELISA reader (SpectraMax Pro, Molecular Device, Sunnyvale, Calif.). *Substrate solution: 10 ml phosphate-citrate buffer 0.1M (5.14 ml 0.2M Na2HPO4 (BDH, Poole, UK), 4.86 ml 0.1M citrate (Sigma), 10 ml elgastat water), 0.1 ml of TMB (defrost 3,3′,5,5′-Tetramethylbenzidine at 10 mg/ml in DMSO, Sigma-Aldrich, Saint Louis, Mass.), 6 μl of hydrogen peroxide (Sigma-Aldrich, Saint Louis, Mass.).
The specific clones were then tested for their responses to the 15-mer peptides (POP-1 to POP-12) with fixed or not fixed MGAR cells. For this purpose, 1×10^5 cells from the individual clones are cultured with 5×10^4 fixed or fresh MGAR cells in a 96-well flat bottom plate. […] After 48 h in culture, 120 μl of supernatant was harvested and analysed by ELISA to assess IL-2 production.
Background: An ELISA detects its analyte on a solid surface through an enzyme-linked reagent.

Where [5] appears, read: 15-mers spanning HEAL-26, HEAL-26 specific hybridomas from DR2 mice.
Where [6] appears, read: LNC (lymph node) of pre-treated mice.
Setting [7] is: SPL (spleen) of pre-treated mice.

Ends that are not written are not given here.

On to “GVLPWNAFPGKVCGSNLLSICKTAEFQM-NH2 (cysteine pairing not given here) [GVLP-28, long peptide from a hydrophilic domain of PLP, residues 207-234]”, for which, in experiment [1] (LNC of pre-treated mice), the IL-17 production entry is on record as “significant inhibition” and the “stimulation index of LNC proliferation” value is recorded as “decrease”. In experiment [2], the “response in the in vivo study (EAE induction)” value (shortened to “response in the in vivo study”) was “respond”. Also, the “response in the in vitro study (proliferation assay)” value (shortened to “response in the in vitro study”) in experiment [3] is reported as “respond”.
Take “EKLIETYFSKNYQDY [POP-8, 15-mer overlapping peptide spanning HEAL-26]”: the identification as apitope result in experiment [4] (setting [5]) is listed as “identified as apitopes”.
As for “HEALTGTEKLIETYFSKNYQDYEYLI-NH2 [HEAL-26, long peptide from a hydrophilic domain of PLP, residues 36-61]”, the “proliferation (3H-thymidine incorporation)” value in experiment [1] (setting [6]) and in experiment [1] (setting [7]) was “decrease” throughout. Moreover, the IL-17 production entry in experiment [1] (LNC of pre-treated mice) and in experiment [1] (SPL of pre-treated mice) was “decrease” throughout. Also, the IL-5 production entry in experiment [1] (pre-treated mice, cell population not specified) is listed as “increase”. Further, in experiment [2], the “response in the in vivo study” value was “respond”. In experiment [3], the “response in the in vitro study” value is reported as “respond”.
As to “TTCQSIAFPSKTSAS [POP-15, 15-mer overlapping peptide spanning TWTT-28]”, in experiment [1] (setting [6]), the “proliferation (3H-thymidine incorporation)” value is listed as “significant inhibition”. Moreover, in experiment [1] (LNC of pre-treated mice), the GM-CSF production entry is listed as “significant inhibition”, the IFN-γ production entry is listed as “significant inhibition”, the IL-17 production result is reported as “significant inhibition” and the cytokine production result was “inhibit very well”. Also, the “proliferation (3H-thymidine incorporation)” value in experiment [1] (setting [7]) is “no difference”. For the same substance, in experiment [1] (SPL of pre-treated mice), the GM-CSF production entry was “less”, the IFN-γ production result is given as “less”, the IL-17 production entry was “less” and the cytokine production result was “inhibit very well”.
As to “LTGTEKLIETYFSKN [POP-4, 15-mer overlapping peptide spanning HEAL-26]”, in experiment [1] (setting [6]), the “proliferation (3H-thymidine incorporation)” value is given as “inhibition”. In addition, in experiment [1] (LNC of pre-treated mice), the IFN-γ production result was “significant decrease”, the IL-17 production entry was “significant decrease” and the TNF-α production entry is on record as “significant decrease”. In experiment [1] (setting [7]), the “proliferation (3H-thymidine incorporation)” value was “inhibition”. Also, in experiment [1] (SPL of pre-treated mice), the IFN-γ production result is “significant decrease”, the IL-17 production entry is listed as “significant decrease” and the TNF-α production result is “significant decrease”. In addition, the identification as apitope result in experiment [4] (setting [5]) was “identified as apitopes”.
Consider “TEKLIETYFSKNYQD [POP-7, 15-mer overlapping peptide spanning HEAL-26]”, for which the identification as apitope entry in experiment [4] (setting [5]) is listed as “identified as apitopes”.
Regarding “TWTTCQSIAFPSKTSASIGSLCADARMY-NH2 (cysteine pairing not given here) [TWTT-28, long peptide from a hydrophilic domain of PLP, residues 179-206]”, the “proliferation (3H-thymidine incorporation)” value in experiment [1] (setting [6]) and in experiment [1] (setting [7]) was “inhibit very well” throughout. Besides, the cytokine production entry in experiment [1] (LNC of pre-treated mice) and in experiment [1] (SPL of pre-treated mice) was “inhibit very well” throughout. Besides, the “response in the in vivo study” value in experiment [2] was “respond”. Besides, the “response in the in vitro study” value in experiment [3] is listed as “respond”.
On to “VLPWNAFPGKVCGSN [POP-22, 15-mer overlapping peptide spanning GVLP-28]”, for which, in experiment [1] (LNC of pre-treated mice), the IL-17 production entry is on record as “significant inhibition” and the “stimulation index of LNC proliferation” value is reported as “decrease”. In addition, the identification as apitope entry in experiment [4] (15-mers spanning GVLP-28, TWTT-28 specific hybridomas from DR2 mice (so in the source)) is on record as “identified as an apitope”.

The values above are taken from patent publication US20150352197A1, “PEPTIDE” (Apitope International NV, priority 2013, published 2015).
